According to US20220023289A1, “Application Of Pyrroloquinoline Quinone In Preparation Of Medicament Used For Preventing And Treating Acute Altitude Sickness And Acute Altitude Hypoxia Injury” (priority 2018, published 2022):

Key:
[1] = tested on: rats exposed to acute altitude hypoxia; assay: Myocardial enzyme activity in rats exposed to acute altitude hypoxia; assay type: in vivo, Wistar rat; settings: for effect on serum lactate dehydrogenase, creatine kinase, α-hydroxybutyrate dehydrogenase: hypoxia exposed male rats
Protocol: (§1) Select healthy Wistar rats weight 160-200 g, half female and half male. After feeding for 3 days, these Wistar rats are randomly divided into ten groups according to their body weight, each group has 16±2 rats. The groups are divided as follows: five groups of the hypoxic exposure drug test group, respectively, are given 0.91 mg/kg, 1.83 mg/kg, 3.66 mg/kg, 7.31 mg/kg, and 14.63 mg/kg drugs. […] After continuous intragastric administration for 7 days, the animals in the hypoxic exposure group are simultaneously put into the decompression and hypoxia compound experimental chamber, the hatch is closed, and the pressure is reduced at a speed of 10 m/s. After being raised to an altitude of 6000 m and maintained for 8 hours, the speed in 10 m/s drops is reduced to normal altitude, open the hatch, and then take out the animal, collect blood samples (after standing for 1 hour, the supernatant is centrifuged and stored at −20° C.), and liver tissue samples. Detection indicator includes body weight, serum blood glucose, ATP, lactic acid, endothelin, nitric oxide, SOD, CO, MDA related to oxidative stress, and total protein, albumin, triglycerides, total cholesterol, high-density lipoprotein cholesterol, low-density lipoprotein cholesterol, glutamic pyruvic transaminase, total bilirubin, gluamic oxalacetic transaminase, serum urea nitrogen, creatinine, uric acid, lactate dehydrogenase, creatine kinase, α-hydroxybutyrate dehydrogenase; liver ATP, hepatic glycogen. Except that the formal oxygen control animal group is not put into the decompression and hypoxia compound experimental chamber, other experimental conditions and detection indicators are the same.
(§2) Measure blood glucose, total protein, albumin, triglycerides, total cholesterol, high-density lipoprotein cholesterol, low-density lipoprotein cholesterol, glutamic-pyruvic transaminase, total bilirubin, glutamic oxalacetic transaminase, serum urea nitrogen, creatinine, uric acid, lactate dehydrogenase, creatine kinase, α-hydroxybutyrate dehydrogenase, blood homocysteine by using an automatic blood biochemical analyzer.

[2] = Body weight of male mice in exhaustive swimming experiment; settings: 0.16 g/kg
Protocol: Select healthy male Kunming mice weight 18-22 g. After feeding for 3 days, they are randomly divided into seven groups according to their body weight, each group has 10±1 mice. The groups are divided as follows: 5 groups of the drug test group, respectively, are given 1.32 mg/kg, 2.64 mg/kg, 5.28 mg/kg, 10.56 mg/kg, and 21.12 mg/kg drugs by gavage administration. […] After administration for 7 days, select an exhaustive swimming experiment under hypoxic conditions perform physical work ability evaluation; the observation index is an exhaustive swimming time. In the decompression and hypoxia compound laboratory chamber, decompression hypoxia is performed to an altitude of 6000 m, the swimming box is filled with water at a depth of 40 cm and the water temperature is 25° C. The animal is placed in the swimming box, and use a stopwatch to record a time from the start of swimming to exhaustion of the animal. Exhaustive swimming time is the time when an animal still cannot surface for 9 s after sinking.

[3] = tested on: rats exposed to acute altitude hypoxia; assay: Renal function in rats exposed to acute altitude hypoxia; assay type: in vivo, Wistar rat
Protocol: as §1, §2

[4] = female rats, hypoxia, 0.11 g/kg
[5] = female rats, normoxia, 0.11 g/kg
[6] = female rats, hypoxia, 0.91 mg/kg
[7] = female rats, hypoxia, 1.83 mg/kg
[8] = female rats, hypoxia, 3.66 mg/kg
[9] = female rats, hypoxia, 7.31 mg/kg
[10] = female rats, hypoxia, 14.63 mg/kg
[11] = female rats, normoxia, 3.66 mg/kg
[12] = male rats, hypoxia, 14.63 mg/kg

For `CC(=O)Nc1nnc(S(N)(=O)=O)s1` [Acetazolamide, reference compound], the “Creatine Kinase” value [1, 4] was 503.40 ± 137.62 U/L, the Lactate dehydrogenase [1, 4] was 534.00 ± 179.23 U/L and the α-hydroxybutyrate dehydrogenase [1, 4] was 230.20 ± 75.49 U/L. For the same molecule, the “effect on serum lactic dehydrogenase, creatine kinase, α-hydroxybutyrate dehydrogenase activity” value (shortened to “effect on serum lactic dehydrogenase”) ([1]; female rats, normoxia) was “no significant effects”, the “Creatine Kinase” value [1, 5] was 697.67 ± 222.15 U/L and the Lactate dehydrogenase [1, 5] was 998.67 ± 285.56 U/L. For the same molecule, the α-hydroxybutyrate dehydrogenase [1, 5] was 430.33 ± 134.10 U/L, the “effect on serum lactic dehydrogenase” value ([1]; hypoxia exposed female rats) was “no significant effects” and the “effect on serum lactate dehydrogenase, creatine kinase, α-hydroxybutyrate dehydrogenase” value [1] was “has not been found”. For the same molecule, the “Creatine Kinase” value ([1]; male rats, hypoxia, 0.11 g/kg) was 352.43 ± 138.11 U/L, the Lactate dehydrogenase ([1]; male rats, hypoxia, 0.11 g/kg) was 303.86 ± 174.67 U/L and the α-hydroxybutyrate dehydrogenase ([1]; male rats, hypoxia, 0.11 g/kg) was 126.29 ± 67.51 U/L. For the same molecule, the “body weight male 1 day” value [2] was 21.28 ± 1.38 g, the “body weight male 7 days” value [2] was 23.05 ± 4.41 g and the Creatinine [3, 4] was 18.78 ± 1.96 µmol/L. The Uric acid [3, 4] was 77.80 ± 17.31 µmol/L, the “effect on serum urea nitrogen and creatinine values” ([3]; female rats, normoxia) was “increasing” and the “effect on serum uric acid level” value ([3]; female rats, normoxia) was “reducing”. The Creatinine [3, 5] was 19.67 ± 0.32 µmol/L, the Uric acid [3, 5] was 82.00 ± 15.10 µmol/L and the “effect on serum urea nitrogen and creatinine value” ([3]; hypoxia exposed female rats) was “increasing”. The “effect on serum uric acid level” value ([3]; hypoxia exposed female rats) was “decreasing”, the “effect on serum creatinine” value ([3]; hypoxia exposed male rats) was “no significant effect” and the “effect on serum urea nitrogen content” value ([3]; hypoxia exposed male rats) was “increase”. For the same molecule, the “effect on serum uric acid level” value ([3]; hypoxia exposed male rats) was “can reduce”, the Creatinine ([3]; male rats, hypoxia, 0.11 g/kg) was 25.01 ± 2.48 µmol/L and the Uric acid ([3]; male rats, hypoxia, 0.11 g/kg) was 81.86 ± 11.05 µmol/L.

In the case of `O=C(O)c1cc(C(=O)O)c2c(n1)C(=O)C(=O)c1cc(C(=O)O)[nH]c1-2` [PQQ, pyrroloquinoline quinone], the “Creatine Kinase” value [1, 6] is reported as 505.43 ± 202.03 U/L, the Lactate dehydrogenase [1, 6] is reported as 627.43 ± 253.66 U/L and the α-hydroxybutyrate dehydrogenase [1, 6] is reported as 270.28 ± 111.79 U/L. The “Creatine Kinase” value [1, 7] was 508.57 ± 235.83 U/L, the Lactate dehydrogenase [1, 7] was 650.00 ± 338.13 U/L and the α-hydroxybutyrate dehydrogenase [1, 7] was 286.71 ± 154.38 U/L. The “Creatine Kinase” value [1, 8] was 459.14 ± 239.34 U/L, the Lactate dehydrogenase [1, 8] was 544.14 ± 314.26 U/L and the α-hydroxybutyrate dehydrogenase [1, 8] was 233.43 ± 147.72 U/L. The “Creatine Kinase” value [1, 9] was 454.86 ± 241.51 U/L, the Lactate dehydrogenase [1, 9] was 499.71 ± 320.46 U/L and the α-hydroxybutyrate dehydrogenase [1, 9] was 210.14 ± 140.24 U/L. For the same molecule, the “Creatine Kinase” value [1, 10] was 439.86 ± 222.18 U/L, the Lactate dehydrogenase [1, 10] was 496.86 ± 259.65 U/L and the α-hydroxybutyrate dehydrogenase [1, 10] was 208.86 ± 112.12 U/L. For the same molecule, the “effect on serum lactic dehydrogenase” value ([1]; female rats, normoxia) was “increasing”, the “Creatine Kinase” value [1, 11] was 1024.00 ± 313.62 U/L and the Lactate dehydrogenase [1, 11] was 1199.14 ± 204.93 U/L. For the same molecule, the α-hydroxybutyrate dehydrogenase [1, 11] was 537.29 ± 92.21 U/L, the “effect on serum lactic dehydrogenase” value ([1]; hypoxia exposed female rats) was “has been not found” and the “effect on serum lactate dehydrogenase, creatine kinase, α-hydroxybutyrate dehydrogenase” value [1] was “has not been found”. The “Creatine Kinase” value ([1]; male rats, hypoxia, 0.91 mg/kg) was 443.63 ± 260.18 U/L, the Lactate dehydrogenase ([1]; male rats, hypoxia, 0.91 mg/kg) was 463.38 ± 364.37 U/L and the α-hydroxybutyrate dehydrogenase ([1]; male rats, hypoxia, 0.91 mg/kg) was 218.00 ± 173.09 U/L. For the same molecule, the “Creatine Kinase” value ([1]; male rats, hypoxia, 1.83 mg/kg) was 544.63 ± 418.71 U/L, the Lactate dehydrogenase ([1]; male rats, hypoxia, 1.83 mg/kg) was 650.13 ± 573.72 U/L and the α-hydroxybutyrate dehydrogenase ([1]; male rats, hypoxia, 1.83 mg/kg) was 286.75 ± 260.98 U/L. The “Creatine Kinase” value ([1]; male rats, hypoxia, 3.66 mg/kg) was 544.50 ± 243.30 U/L, the Lactate dehydrogenase ([1]; male rats, hypoxia, 3.66 mg/kg) was 588.13 ± 360.36 U/L and the α-hydroxybutyrate dehydrogenase ([1]; male rats, hypoxia, 3.66 mg/kg) was 256.63 ± 154.55 U/L. The “Creatine Kinase” value ([1]; male rats, hypoxia, 7.31 mg/kg) was 640.25 ± 333.16 U/L, the Lactate dehydrogenase ([1]; male rats, hypoxia, 7.31 mg/kg) was 767.38 ± 546.88 U/L and the α-hydroxybutyrate dehydrogenase ([1]; male rats, hypoxia, 7.31 mg/kg) was 325.63 ± 238.56 U/L. The “Creatine Kinase” value [1, 12] was 510.89 ± 240.61 U/L, the Lactate dehydrogenase [1, 12] was 510.44 ± 275.48 U/L and the α-hydroxybutyrate dehydrogenase [1, 12] was 218.67 ± 118.08 U/L. For the same molecule, the Creatinine [3, 6] was 14.67 ± 1.46 µmol/L, the Serum urea nitrogen [3, 6] was 6.85 ± 0.90 mmol/L and the Uric acid [3, 6] was 163.43 ± 12.51 µmol/L. The Creatinine [3, 7] was 14.23 ± 1.90 µmol/L, the Serum urea nitrogen [3, 7] was 5.98 ± 0.62 mmol/L and the Uric acid [3, 7] was 152.71 ± 16.58 µmol/L. It also gave a Creatinine [3, 8] of 12.71 ± 1.98 µmol/L, a Serum urea nitrogen [3, 8] of 5.79 ± 0.62 mmol/L and a Uric acid [3, 8] of 151.14 ± 18.48 µmol/L. The Creatinine [3, 9] was 16.06 ± 1.19 µmol/L, the Serum urea nitrogen [3, 9] was 6.00 ± 0.98 mmol/L and the Uric acid [3, 9] was 152.43 ± 25.28 µmol/L. For the same molecule, the Creatinine [3, 10] was 13.51 ± 1.33 µmol/L, the Serum urea nitrogen [3, 10] was 5.86 ± 0.54 mmol/L and the Uric acid [3, 10] was 155.33 ± 21.56 µmol/L. The “effect on serum urea nitrogen, creatinine and uric acid” value ([3]; female rats, normoxia) was “no significant effects”, the Creatinine [3, 11] was 19.37 ± 4.32 µmol/L and the Serum urea nitrogen [3, 11] was 6.23 ± 0.36 mmol/L. For the same molecule, the Uric acid [3, 11] was 193.57 ± 20.80 µmol/L, the “effect on serum urea nitrogen, creatinine and uric acid” value ([3]; hypoxia exposed female rats) was “no significant effects” and the “effect on serum urea nitrogen and creatinine” value ([3]; hypoxia exposed male rats) was “no significant effect”. For the same molecule, the “effect on serum uric acid content” value ([3]; hypoxia exposed male rats, low-dose) was “reduce serum uric acid content”, the Creatinine ([3]; male rats, hypoxia, 0.91 mg/kg) was 18.44 ± 1.46 µmol/L and the Serum urea nitrogen ([3]; male rats, hypoxia, 0.91 mg/kg) was 5.13 ± 0.75 mmol/L. For the same molecule, the Uric acid ([3]; male rats, hypoxia, 0.91 mg/kg) was 134.25 ± 19.08 µmol/L, the Creatinine ([3]; male rats, hypoxia, 1.83 mg/kg) was 21.59 ± 3.31 µmol/L and the Serum urea nitrogen ([3]; male rats, hypoxia, 1.83 mg/kg) was 5.44 ± 1.13 mmol/L. For the same molecule, the Uric acid ([3]; male rats, hypoxia, 1.83 mg/kg) was 142.60 ± 10.78 µmol/L, the Creatinine ([3]; male rats, hypoxia, 3.66 mg/kg) was 21.90 ± 2.88 µmol/L and the Serum urea nitrogen ([3]; male rats, hypoxia, 3.66 mg/kg) was 6.37 ± 1.64 mmol/L. It also gave a Uric acid ([3]; male rats, hypoxia, 3.66 mg/kg) of 171.38 ± 14.92 µmol/L, a Creatinine ([3]; male rats, hypoxia, 7.31 mg/kg) of 22.40 ± 1.53 µmol/L and a Serum urea nitrogen ([3]; male rats, hypoxia, 7.31 mg/kg) of 5.91 ± 0.86 mmol/L. The Uric acid ([3]; male rats, hypoxia, 7.31 mg/kg) was 202.16 ± 17.13 µmol/L, the Creatinine [3, 12] was 22.49 ± 3.00 µmol/L and the Serum urea nitrogen [3, 12] was 6.23 ± 1.36 mmol/L. The Uric acid [3, 12] was 182.22 ± 15.80 µmol/L.
